Assay results taken from PubChem BioAssay (NCI).
“And” between values parts separate entries of the source, which are not always exact repeats. Identical values can stand only once.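 Grown in 96-well plates, cells were treated for 48 hours with each compound at five concentrations. Insufficient inhibition: endpoint recorded as highest concentration tested. Here, GI50 denotes the concentration required for 50% inhibition of growth. The concentration for full growth arrest is given as TGI.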

Experiments:
Assay in all cases: inhibition of tumour cell growth, NCI panel, 48 h
[1] = tested on: A498 renal
[2] = tested on: HCT-116 colon
[3] = tested on: HL-60(TB) leukemia
[4] = tested on: NCI-H226 lung
[5] = tested on: SN12C renal
[6] = tested on: SR leukemia
[7] = tested on: OVCAR-8 ovarian
[8] = tested on: HT29 colon
[9] = tested on: NCI-H23 lung
[10] = tested on: HS 578T breast

| Compound | TGI [1] | TGI [2] | TGI [3] | TGI [4] | TGI [5] | TGI [6] [µM] | TGI [7] | TGI [8] | TGI [9] | TGI [10] | GI50 [1] | GI50 [2] | GI50 [3] | GI50 [4] | GI50 [5] | GI50 [7] | GI50 [8] | GI50 [9] | GI50 [10] |
| --- | --- | --- | --- | --- | --- | --- | --- | --- | --- | --- | --- | --- | --- | --- | --- | --- | --- | --- | --- |
| O=S(=O)(O)c1ccc([Se][Se]c2ccc(S(=O)(=O)O)cc2)cc1 | > 100 µM | > 100 µM | > 100 µM | > 100 µM | > 100 µM | 96.6 | > 100 µM | > 100 µM | > 100 µM | – | – | – | – | – | – | – | – | – | – |
| Cc1ccc(O)c(C(=O)/C=C/c2ccccc2)c1 | – | > 100 µM | > 100 µM | > 100 µM | > 100 µM | > 100 | > 100 µM | > 100 µM | > 100 µM | > 100 µM | – | – | – | – | – | – | – | – | – |
| CNC(=O)c1cc(Oc2ccc(NC(=O)Nc3ccc(Cl)c(C(F)(F)F)c3)cc2)ccn1 | 9.48 µM and 6.38 µM and 6.52 µM | > 10 µM and 4.21 µM and 7.48 µM | 3.8 µM and 14.1 µM | 9.38 µM and 7.14 µM and 7.27 µM | > 10 µM and 10.6 µM and 7.15 µM | – | > 10 µM and 9.06 µM and 20.2 µM | > 10 µM and 8.39 µM and 9.02 µM | 9.84 µM and 5.55 µM and 8.21 µM | > 10 µM and 8.47 µM and 16.4 µM | 3.1 µM and 2.27 µM and 2.15 µM | 1.74 µM and 1.5 µM and 1.9 µM | 0.703 µM and 1.53 µM | 1.14 µM and 2.29 µM and 2 µM | 2.84 µM and 2.98 µM and 2.31 µM | 3 µM and 2.91 µM and 3.03 µM | 2.54 µM and 2.45 µM and 2.36 µM | 2.19 µM and 1.65 µM and 1.95 µM | 2.96 µM and 2.33 µM and 2.59 µM |
| Oc1ccccc1-c1cnnc(-c2ccccc2O)c1 | – | 44.2 µM | 44.1 µM | 73.9 µM | > 100 µM | 75.1 | 57.4 µM | 64.3 µM | – | – | – | – | – | – | – | – | – | – | – |
| CCCCCCCCCCCCCC(=O)OCC1OC(=O)C(O)C1O (configuration not stated) | > 100 µM | > 100 µM | > 100 µM | > 100 µM | > 100 µM | > 100 | > 100 µM | > 100 µM | > 100 µM | – | – | – | – | – | – | – | – | – | – |
| CCC(/C(=N/NC(=O)C[N+](C)(C)C)c1ccccc1)C1OC(=O)c2ccccc21 (configuration not stated) | – | > 100 µM | > 100 µM | > 100 µM | > 100 µM | > 100 | > 100 µM | > 100 µM | > 100 µM | – | – | – | – | – | – | – | – | – | – |
| O=C(Nc1ccn(C2CCC(COC(c3ccccc3)(c3ccccc3)c3ccccc3)O2)c(=O)n1)c1ccccc1 (configuration not stated) | – | 11.9 µM | 4.7 µM | 18 µM | 4.33 µM | 4.82 | 10.1 µM | 6.09 µM | 7.8 µM | 9.05 µM | – | – | – | – | – | – | – | – | – |
| Cc1ccccc1N=C(c1ccccc1)C1C(=O)c2ccccc2C1=O | > 100 µM | 16.2 µM | 32.6 µM | 57.5 µM | > 100 µM | – | > 100 µM | > 100 µM | > 100 µM | 95.3 µM | 24.4 µM | 2.34 µM | 9.49 µM | 19.4 µM | 19.9 µM | 15 µM | 13.7 µM | 15.8 µM | 18.3 µM |
| O=S1(=O)CC#CC[C@@H](CO)[C@@H](CO)CC#CC1 | – | > 100 µM | > 100 µM | – | > 100 µM | > 100 | > 100 µM | > 100 µM | > 100 µM | – | – | – | – | – | – | – | – | – | – |
| COc1ccc2c(c1)C(=O)CC(C(N)=O)C2 (configuration not stated) | – | > 100 µM | > 100 µM | > 100 µM | > 100 µM | > 100 | > 100 µM | > 100 µM | > 100 µM | > 100 µM | – | – | – | – | – | – | – | – | – |
| O=C(NNC(=O)/C(=C/c1cccc([N+](=O)[O-])c1)NC(=O)c1ccccc1)Nc1ccc(Cl)cc1 | 23.4 µM | 26.2 µM | 30.3 µM | 32.2 µM | 28.2 µM | 28.1 | 62.1 µM | 27.8 µM | 30.3 µM | – | – | – | – | – | – | – | – | – | – |
